Structures can show the parent of a compound that is named as a salt.
Tested on: HepaRG
Assay: LDH release cytotoxicity, % of total lysis control; higher = more cytotoxic
Details: 48 h
How it was run: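 Eight-point half-log series of test chemicals, the highest at 100 µM, were given in duplicate for 48 h to single-lot HepaRG cells on collagen I-coated 96-well plates in serum-free induction medium with 0.5% DMSO. A Tecan Safire read resorufin fluorescence from CytoTox-ONE as a measure of LDH in 50 µL spent medium, with 0.1% Triton X in total lysis wells. Percent cytotoxicity was normalized to on-plate vehicle and total lysis controls and averaged over the duplicates.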

CC(C)(C)CC(C)(C)c1ccc(O)c(-n2nc3ccccc3n2)c1 [Octrizole]
Details	LDH release cytotoxicity [%]
0.03162 µM	-2.72
0.1 µM	-2.89
0.3162278 µM	-2.68
1 µM	-3.09
3.16228 µM	-3.1
10 µM	-2.49
31.6228 µM	-1.9
100 µM	-2.37

CC(C)(C)c1ccccc1 [tert-Butylbenzene]
Details	LDH release cytotoxicity [%]
0.03162 µM	-3.19
0.1 µM	-2.41
0.3162278 µM	-1.88
1 µM	-2.09
3.16228 µM	-1.34
10 µM	-1.35
31.6228 µM	-0.245
100 µM	0.779

CCCCCCCC(=O)OC [Methyl octanoate]
Details	LDH release cytotoxicity [%]
0.03162 µM	-0.862
0.1 µM	-0.372
0.3162278 µM	-1.13
1 µM	-1.52
3.16228 µM	-0.786
10 µM	-1.1
31.6228 µM	-1.29
100 µM	0.214

CCc1cnc(C2=NC(C)(C(C)C)C(=O)N2)c(C(=O)O)c1 (centres undefined) [Imazethapyr]
Details	LDH release cytotoxicity [%]
0.03162 µM	-0.727
0.1 µM	-1.781
0.3162278 µM	-1.13
1 µM	-1.33
3.16228 µM	-1.54
10 µM	-1.13
31.6228 µM	-0.237
100 µM	0.45

CC(C)Nc1nc(Cl)nc(NC(C)C)n1 [Propazine]
Details	LDH release cytotoxicity [%]
0.03162 µM	-0.771
0.1 µM	-0.918
0.3162278 µM	-0.266
1 µM	-0.0277
3.16228 µM	-0.787
10 µM	-0.398
31.6228 µM	-0.397
100 µM	-0.828

CC12CCC3c4ccc(O)cc4CCC3C1CCC2O (stereo not drawn) [17beta-Estradiol]
Details	LDH release cytotoxicity [%]
0.01581 µM	-0.962
0.05 µM	-1.17
0.1581139 µM	-1.03
0.5 µM	-1.37
1.5811388 µM	-1.1
5 µM	-0.844
15.8114 µM	-0.113
50 µM	6.2

CCCC(=NOCC)C1C(=O)CC(CC(C)SCC)CC1=O (centres undefined) [Sethoxydim]
Details	LDH release cytotoxicity [%]
0.0317809 µM	-1.15
0.1005 µM	-1.26
0.317809 µM	-1.36
1.005 µM	-1.93
3.17809 µM	-1.21
10.05 µM	-0.579
31.7809 µM	-0.893
100.5 µM	0.566

CNC(C)=O [N-Methylacetamide]
Details	LDH release cytotoxicity [%]
0.03162 µM	-1.43
0.1 µM	-0.843
0.3162278 µM	-1.8
1 µM	-2.12
3.16228 µM	-2.26
10 µM	-2.1
31.6228 µM	-2.47
100 µM	34

CCNP(=S)(OC)OC(C)=CC(=O)OC(C)C (centres undefined) [Propetamphos]
Details	LDH release cytotoxicity [%]
0.03162 µM	0.305
0.1 µM	-0.308
0.3162278 µM	-1.36
1 µM	-0.42
3.16228 µM	-0.261
10 µM	0.0856
31.6228 µM	-1.69
100 µM	2.91

N#CC1CC(F)(F)CN1C(=O)CNC1CC2CCC(C1)N2c1ncccn1 (centres undefined)
Details	LDH release cytotoxicity [%]
0.03162 µM	-1.64
0.1 µM	-2.99
0.3162278 µM	-2.24
1 µM	-2.72
3.16228 µM	-2.06
10 µM	-1.96
31.6228 µM	-1.33
100 µM	-1.49

CC(C)COC(=O)c1ccccc1C(=O)OCC(C)C [Diisobutyl phthalate]
Details	LDH release cytotoxicity [%]
0.03162 µM	-2.33
0.1 µM	-2.4
0.3162278 µM	-2.25
1 µM	-2.06
3.16228 µM	-2.34
10 µM	-1.43
31.6228 µM	-2.53
100 µM	-1.03

O=c1n(CC2CO2)c(=O)n(CC2CO2)c(=O)n1CC1CO1 (centres undefined) [Tris(2,3-epoxypropyl)isocyanurate]
Details	LDH release cytotoxicity [%]
0.03162 µM	0.512
0.1 µM	0.218
0.3162278 µM	0.217
1 µM	0.322
3.16228 µM	-0.576
10 µM	0.383
31.6228 µM	0.616
100 µM	1.86

c1cc2c3c(cccc3c1)CC2 [Acenaphthene]
Details	LDH release cytotoxicity [%]
0.03162 µM	-0.325
0.1 µM	-0.376
0.3162278 µM	0.475
1 µM	-0.576
3.16228 µM	-0.0334
10 µM	0.635
31.6228 µM	0.885
100 µM	1.86

COC(=O)Nc1nc2ccccc2[nH]1 [Carbendazim]
Details	LDH release cytotoxicity [%]
0.03162 µM	-1.09
0.1 µM	-0.973
0.3162278 µM	-1.51
1 µM	-1.78
3.16228 µM	-1.63
10 µM	7.25
31.6228 µM	7.37
100 µM	8.69

CCCC(=O)OCCC(C)C [Isopentyl butyrate]
Details	LDH release cytotoxicity [%]
0.03162 µM	0.497
0.1 µM	-0.72
0.3162278 µM	-0.446
1 µM	-0.671
3.16228 µM	0.184
10 µM	0.168
31.6228 µM	0.438
100 µM	1.65

CC(C=CC1=C(C)CCCC1(C)C)=CC=CC(C)=CC(=O)O [all-trans-Retinoic acid]
Details	LDH release cytotoxicity [%]
0.03162 µM	-2.15
0.1 µM	-2.16
0.3162278 µM	-1.95
1 µM	-2.25
3.16228 µM	-2.56
10 µM	-1.87
31.6228 µM	-1.86
100 µM	2.13

c1ccc2cc3c(ccc4ccccc43)cc2c1 [Benz(a)anthracene]
Details	LDH release cytotoxicity [%]
0.03162 µM	0.322
0.1 µM	-1.2
0.3162278 µM	-1.02
1 µM	-1.2
3.16228 µM	-0.916
10 µM	-0.353
31.6228 µM	-1.51
100 µM	-1.17

Cc1cccc(N)c1 [3-Methylaniline]
Details	LDH release cytotoxicity [%]
0.03162 µM	-1.1
0.1 µM	-0.218
0.3162278 µM	-1
1 µM	-0.834
3.16228 µM	-0.813
10 µM	0.339
31.6228 µM	0.0207
100 µM	1.94

OCC(CO)n1cnc(-c2ccc(F)cc2)c1-c1ccnc(Oc2ccccc2)n1
Details	LDH release cytotoxicity [%]
0.029093 µM	-1.79
0.092 µM	-1.44
0.29093 µM	-0.719
0.92 µM	-1.96
2.9092954 µM	-2.48
9.2 µM	-2.62
29.093 µM	0.252
92 µM	51.2

CCOC(=O)C(O)(c1ccc(Cl)cc1)c1ccc(Cl)cc1 [Chlorobenzilate]
Details	LDH release cytotoxicity [%]
0.03162 µM	-0.592
0.1 µM	-1.28
0.3162278 µM	-1.55
1 µM	-2.17
3.16228 µM	-2.04
10 µM	-1.17
31.6228 µM	-0.669
100 µM	3.46

N#CN=C1SCCN1Cc1ccc(Cl)nc1 [Thiacloprid]
Details	LDH release cytotoxicity [%]
0.03162 µM	-2.96
0.1 µM	-3.73
0.3162278 µM	-3.467
1 µM	-3.3
3.16228 µM	-3.46
10 µM	-2.54
31.6228 µM	-2.87
100 µM	-1.64

CCCCCCCCCCCCCCCCOS(=O)(=O)O [Sodium hexyldecyl sulfate]
Details	LDH release cytotoxicity [%]
0.01581 µM	-0.927
0.05 µM	-0.892
0.1581139 µM	-1.25
0.5 µM	-1.53
1.5811388 µM	-0.623
5 µM	-0.974
15.8114 µM	-0.978
50 µM	10.6

CNC1CCC(c2ccc(Cl)c(Cl)c2)c2ccc(S(N)(=O)=O)cc21 (centres undefined)
Details	LDH release cytotoxicity [%]
0.03162 µM	-1.64
0.1 µM	-2.15
0.3162278 µM	-1.81
1 µM	-1.88
3.16228 µM	-1.12
10 µM	-0.337
31.6228 µM	15
100 µM	81.4

CCCOC(=O)c1cc(O)c(O)c(O)c1 [Propyl gallate]
Details	LDH release cytotoxicity [%]
0.031623 µM	0.488
0.1 µM	-3.35
0.316228 µM	-3.75
1 µM	-4.27
3.16228 µM	-3.65
10 µM	-3.8
31.6228 µM	-4.52
100 µM	-3.34

CCNc1nc(Cl)nc(NCC)n1 [Simazine]
Details	LDH release cytotoxicity [%]
0.03162 µM	-0.667
0.1 µM	-1.85
0.3162278 µM	-2.13
1 µM	-2.25
3.16228 µM	-2.26
10 µM	-1.94
31.6228 µM	-0.91
100 µM	-0.579

CC(C)(O)c1ccc(CNC(=O)c2cccnc2Oc2ccc3nonc3c2)cc1
Details	LDH release cytotoxicity [%]
0.03162 µM	-0.138
0.1 µM	-0.0235
0.3162278 µM	-1.43
1 µM	-1.1
3.16228 µM	-0.724
10 µM	-0.975
31.6228 µM	-1.98
100 µM	-2.05

NC(=O)c1nc(-c2cccc(-c3cc(F)ccc3OCC(F)(F)C(F)(F)F)c2)n[nH]1 [MK-274]
Details	LDH release cytotoxicity [%]
0.03162 µM	-1.29
0.1 µM	-0.429
0.3162278 µM	-0.661
1 µM	-1.07
3.16228 µM	-0.753
10 µM	-0.915
31.6228 µM	0.166
100 µM	86.6

Cc1ccc(-c2c(Cl)nc(C#N)n2S(=O)(=O)N(C)C)cc1 [Cyazofamid]
Details	LDH release cytotoxicity [%]
0.03162 µM	1.31
0.1 µM	-1.5
0.3162278 µM	-1.4
1 µM	-0.689
3.16228 µM	-1.5
10 µM	43.2
31.6228 µM	52.8
100 µM	53.7
